Test results taken from PMC11004178, “LDL receptor-related protein 5 selectively transports unesterified polyunsaturated fatty acids to intracellular compartments” (Nature Communications, 2024).

Molecular target: T1, mTORC1 (mTOR kinase complex) (Homo sapiens, UniProt P42345)
T1 construct: mTORC1 complex immunoprecipitated from HEK293T cells expressing HA-tagged Raptor; with Raptor (HA-tagged; mTORC1 complex)
Experiment: in vitro kinase assay, immunoprecipitated mTORC1, GST-4EBP1 substrate, […] EPA (single concentration)
Type: biochemical

CC/C=C\C/C=C\C/C=C\C/C=C\C/C=C\CCCC(=O)O [EPA, eicosapentaenoic acid]
in vitro kinase assay, immunoprecipitated mTORC1, GST-4EBP1 substrate, 100 μM EP: The addition of EPA, but not EPA-EE, caused significant inhibition of 4EBP1 phosphorylation by immunoprecipitated mTORC1
